Experimental data published in US20120157471A1, “BENZIMIDAZOLE DERIVATIVES” (PFIZER INC., priority 2009, published 2012).
Where a name gives a salt, the structure may show the parent alone.

Columns and labels:
[1] = target: T1, human Smo (amino acids 181-787) (Homo sapiens, UniProt Q99835); assay: Smo radioligand competition binding assay (displacement of 3H-PF-03451358 from HEK293 membranes); conditions: for inhibition at 0.05 µM: 0.05 μM test compound, displacement of 3H-PF-03451358, read-out: SMO % inh. @ 0.05 μM; for IC50: radioligand competition binding
T1 construct: expressed in transfected cells; membrane preparation
Description: Membranes were prepared from a stable cell line created in HEK293FlpIn-TetR cells (Invitrogen) using FIp recombinase-mediated insertion of the pSecTag-FRT/V5-His vector containing a cDNA encoding amino acids 181-787 of human Smo fused to the murine lgk leader sequence to produce a cell surface expressed Smo 181-781 protein. Hygromycin-resistant clones were obtained and stained for LacZ expression (no expression indicates a correct knock-in of my fusion cDNA). LacZ-negative cells were analyzed for binding tritiated Smo antagonist PF-03451358. For membrane preparation, the HEK293 cells expressing Smo 181-781 were grown to 90% confluence in nine to fifteen 245 mm×245 mm×22 mm dishes, washed with Dulbecco's PBS (15 ml per dish) and harvested via scraping in 10 ml of DPBS. The cells were collected and centrifuged at 1500 rpm (400×g) for 10 min at 4° C. The cell pellets were re-suspended in 40 ml of cold DPBS and washed by centrifugation at 2300 rpm (950×g max) for 10 minutes at 4° C. The supernatant was aspirated and the cell pellet was snap frozen in a methanol/dry ice bath and stored at −70° C. For membrane preparation, 15 ml of Membrane Preparation Buffer (50 mM Tris-HCl pH 7.5, 250 mM sucrose with Roche complete protease cocktail tablets) is added to the tube containing the cell pellet, then cells are rapidly thawed, and homogenized using an Ultra-Turrax T8 (IKA Labortechnik) set on “6” for 15 seconds for 5-6 times in icy water bath. This homogenate was diluted up to 50 ml using Membrane Preparation Buffer and centrifuged at 35,000 rpm in a Beckman Ti45 rotor (140,000×g) for 35 minutes at 4° C. followed by aspiration of the supernatant and re-suspension of the pellet in 5 ml of Assay Buffer (50 mM Tris-HCl pH 7.5, 100 mM NaCl, 25 mM MgCl2, 1 mM EDTA, and 0.1% protease free bovine serum albumin). The re-suspended pellet is then homogenized in a glass tissue grinder. The re-suspended membranes are aliquoted (0.5 ml aliquots), snap frozen and stored at −70° C. Total protein in the membrane preparation is determined using the Pierce BCA protein assay (Pierce Chemical).
For the binding competition assay, 100 μl of Assay Buffer is added to all the wells of a 96 well GF/B filter plate (Millipore MultiScreen-HTS-FB cat# MSFBN6B50) for 10 minutes to pre-wet the filter prior to evacuation of the buffer (8 inches Hg for 8 seconds). To the pre-wet wells is added: 20 μl of Assay Buffer, 10 μl diluted test agent, 20 μl of ^3H-PF-3451358 (15 nM stock solution), and 50 μl of membrane preparation (40 μg total protein per well). The plates are sealed and mixed at room temperature for 5 min, incubated at room temperature for 2 hours, then washed 5 times with 100 μl/each of wash buffer and vacuum dried for 8 seconds at 8 inch Hg. The plate is then dried for one hour in a 60° C. oven prior to the addition of 45 μl of Microscint 20 (Packard, #6013621) to each well and incubation at RT for 30 minutes to 1 hour. The plate is counted in a TopCount scintillation counter (Perkin Elmer).
Data analysis uses Excel for % Inhibition and Graphpad Prism for IC50 calculation. Total binding (TB, in the absence of inhibitors)=average of ^3H PF-03451358 3 nM+SMO membrane (40 μg/wells (approx 5000-7000 CPM). Non-specific binding (NSB)=average of ^3H PF-03451358 (3 nM)+cold PF-03451358 (30 μM)+SMO membrane (approx 600-1200 CPM). Specific binding (SB)=(total binding−non-specific binding). % Inhibition=[1−(compound Specific binding/control Specific binding)]×100%. IC50 is calculated by fitting the data to the four parameter sigmoidal dose-response curve (variable slope) Y=Bottom+(Top-Bottom)/(1+10̂((LogEC50−X)*HillSlope)). X is the logarithm of the inhibitor concentration. Y is the response; Y starts at Bottom and goes to Top with a sigmoid shape.

[2] = tested on: Gli-Luc/MEF cells (Smo); assay: Gli-Luc/MEF assay (Shh-stimulated luciferase reporter under the Gli response element); assay type: cell-based, mouse; conditions: Mus musculus, MEF, 48 h
Description: The Gli-Luc/MEF cells obtained from Gli-Luc transgenic mice (Pfizer CoE, Genetically Modified Mice) contain a luciferase reporter gene under the control of the Gli response element. Luciferase activity stimulated with Sonic hedgehog ligand was inhibited by Smo inhibitors, and IC50 was subsequently calculated.
Plates were incubated at 37° C. and 5% CO2 overnight. On day two, cells were dosed with test compounds at a final concentration ranging from […] to 50 μM at a 3-time series dilution. Immediately after dosing cells with compounds, recombinant mouse sonic hedgehog (Shh, R&D Systems 464-SH) was added to a final concentration of 2 μg/mL. The cells were incubated with compounds and Shh for 48 hours at 37° C. and 5% CO2. Luciferase assays were conducted on Day 4 using the Bright-Glo Luciferase assay system (Promega E2620) according to Promega's protocol. Briefly, Bright-Glo luciferase reagent was made up and 25 uL were added to each well of the 384-well plate containing media. Plates were kept at room temperature for 5 minutes, and then read on an Envision Luminescence plate reader (Perkin-Elmer). IC50 of the inhibition was calculated by using GraphPad Prism.

T1 sequence (Q99835 181-787): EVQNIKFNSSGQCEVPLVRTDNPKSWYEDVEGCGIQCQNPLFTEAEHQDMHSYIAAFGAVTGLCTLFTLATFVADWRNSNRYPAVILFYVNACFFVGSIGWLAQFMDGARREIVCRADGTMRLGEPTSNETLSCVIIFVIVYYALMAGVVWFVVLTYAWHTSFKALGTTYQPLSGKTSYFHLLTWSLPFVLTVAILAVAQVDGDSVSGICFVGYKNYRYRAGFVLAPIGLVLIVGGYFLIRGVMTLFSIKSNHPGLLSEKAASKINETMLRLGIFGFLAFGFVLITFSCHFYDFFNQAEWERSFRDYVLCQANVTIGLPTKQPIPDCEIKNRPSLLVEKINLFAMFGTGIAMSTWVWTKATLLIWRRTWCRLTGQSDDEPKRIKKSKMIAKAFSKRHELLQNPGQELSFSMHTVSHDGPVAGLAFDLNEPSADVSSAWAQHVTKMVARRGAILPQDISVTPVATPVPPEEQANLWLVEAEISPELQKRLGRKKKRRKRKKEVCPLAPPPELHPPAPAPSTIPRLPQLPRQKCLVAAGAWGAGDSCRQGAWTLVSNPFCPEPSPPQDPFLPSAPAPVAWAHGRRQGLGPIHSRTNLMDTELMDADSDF

**Q.** Which inhibition at 0.05 µM [1] does the source give for CCS(=O)(=O)N1CCN(c2cc(-c3nc4ccccc4n3C)c(Cl)cn2)CC1 [Example A-27, 2-{5-chloro-2-[4-(ethylsulfonyl)piperazin-1-yl]pyridin-4-yl}-1-methyl-1H-benzimidazole] here?
**A.** 93%

**Q.** And the IC50 [1]?
**A.** 49 nM

**Q.** And the IC50 [2]?
**A.** 5 nM

**Q.** How did the inhibition at 0.05 µM [1] turn out when Cn1c(-c2ccnc(N3CCNCC3)c2)nc2ccccc21 [Example A-31] was run?
**A.** 54%

**Q.** What about the IC50 [1] of the same compound?
**A.** 645 nM

**Q.** And the IC50 [2]?
**A.** 128 nM

**Q.** What does the source list for CNC(=O)COC1CCN(c2cc(-c3nc4ccccc4n3C)c(Cl)cn2)CC1 [Example A-84, 2-({1-[5-chloro-4-(1-methyl-1H-benzimidazol-2-yl)pyridin-2-yl]piperidin-4-yl}oxy)-N-methylacetamide]?
**A.** inhibition at 0.05 µM [1]: 91%; IC50 [1]: 21 nM; IC50 [2]: 42 nM

**Q.** For CNS(=O)(=O)C1CCN(c2cc(-c3nc4ccccc4n3C)c(Cl)cn2)C1 (stereo not drawn) [Example A-104, 1-[5-chloro-4-(1-methyl-1H-benzimidazol-2-yl)pyridin-2-yl]-N-methylpyrrolidine-3-sulfonamide], which inhibition at 0.05 µM [1] is on record?
**A.** 80%

**Q.** And the IC50 [1]?
**A.** 37 nM

**Q.** What about the IC50 [2] of the same compound?
**A.** 23 nM

**Q.** With Cn1c(-c2cc(N3CC(c4ccncn4)C3)ncc2Cl)nc2ccccc21 [Example A-125, 2-[5-chloro-2-(3-pyrimidin-4-ylazetidin-1-yl)pyridin-4-yl]-1-methyl-1H-benzimidazole] as the compound, how does the inhibition at 0.05 µM [1] read?
**A.** 57%

**Q.** What about the IC50 [2] of the same compound?
**A.** 135 nM

**Q.** With Cn1c(-c2cc(N3CCC(O)(c4ncccn4)C3)ncc2Cl)nc2ccccc21 (stereo not drawn) [Example A-140, 1-[5-chloro-4-(1-methyl-1H-benzimidazol-2-yl)pyridin-2-yl]-3-pyrimidin-2-ylpyrrolidin-3-ol] as the compound, how does the inhibition at 0.05 µM [1] read?
**A.** 42%

**Q.** Which inhibition at 0.05 µM [1] does the source give for CC(=O)N1CCN(c2nccc(-c3nc4ccccc4n3C)n2)CC1 [Example C-2, 2-[2-(4-Acetylpiperazin-1-yl)pyrimidin-4-yl]-1-methyl-1H-benzimidazole] here?
**A.** 65%

**Q.** What about the IC50 [1] of the same compound?
**A.** 447 nM

**Q.** Which results are given for Cn1c(-c2cc(NCCS(C)(=O)=O)ncc2Cl)nc2ccccc21 [Example A-167, 5-chloro-4-(1-methyl-1H-benzimidazol-2-yl)-N-[2-(methylsulfonyl)ethyl]pyridin-2-amine]?
**A.** inhibition at 0.05 µM [1]: 64%; IC50 [1]: 287 nM

**Q.** With Cn1c(-c2cc(N3CC(c4cccnn4)C3)ncc2Cl)nc2ccccc21 [Example A-139, 2-[5-chloro-2-(3-pyridazin-3-ylazetidin-1-yl)pyridin-4-yl]-1-methyl-1H-benzimidazole] as the compound, how does the inhibition at 0.05 µM [1] read?
**A.** 42%

**Q.** How did the inhibition at 0.05 µM [1] turn out when Cn1c(-c2nc(N3CCNCC3)ccc2Cl)nc2ccccc21 [Example B-1, 2-(3-chloro-6-piperazin-1-ylpyridin-2-yl)-1-methyl-1H-benzimidazole formate salt] was run?
**A.** 59%

**Q.** Which inhibition at 0.05 µM [1] does the source give for Cn1c(-c2cc(N3CCC(O)(CN4CCCC4=O)C3)ncc2Cl)nc2ccccc21 (stereo not drawn) [Example A-136, 1-({1-[5-chloro-4-(1-methyl-1H-benzimidazol-2-yl)pyridin-2-yl]-3-hydroxypyrrolidin-3-yl}methyl)pyrrolidin-2-one] here?
**A.** 46%

**Q.** For CN1CCN(C2COCCN(c3cc(-c4nc5ccccc5n4C)c(Cl)cn3)C2)CC1 (stereo not drawn) [Example A-137, 2-{5-chloro-2-[6-(4-methylpiperazin-1-yl)-1,4-oxazepan-4-yl]pyridin-4-yl}-1-methyl-1H-benzimidazole], which inhibition at 0.05 µM [1] is on record?
**A.** 45%

**Q.** How did the inhibition at 0.05 µM [1] turn out when CN(CCN)c1cc(-c2nc3ccccc3n2C)c(Cl)cn1 [Example A-184, N-[5-chloro-4-(1-methyl-1H-benzimidazol-2-yl)pyridin-2-yl]-N-methylethane-1,2-diamine] was run?
**A.** 50%

**Q.** And the IC50 [1]?
**A.** 342 nM

**Q.** CC(=O)N1CCN(c2cc(-c3nc4cccnc4n3C)c(Cl)cn2)CC1 [Example A-40, 2-[2-(4-acetylpiperazin-1-yl)-5-chloropyridin-4-yl]-3-methyl-3H-imidazo[4,5-b]pyridine] was tested. Which inhibition at 0.05 µM [1] did it give?
**A.** 66%

**Q.** What about the IC50 [1] of the same compound?
**A.** 158 nM

**Q.** How did the inhibition at 0.05 µM [1] turn out when Cn1cnnc1C1CCCN(c2cc(-c3nc4ccccc4n3C)c(Cl)cn2)C1 (stereo not drawn) [Example A-138, 2-{5-chloro-2-[3-(4-methyl-4H-1,2,4-triazol-3-yl)piperidin-1-yl]pyridin-4-yl}-1-methyl-1H-benzimidazole] was run?
**A.** 45%

**Q.** With Cn1c(-c2cc(N3CCC(C(=O)O)CC3)ncc2Cl)nc2ccccc21 [Example A-7, 1-[5-chloro-4-(1-methyl-1H-benzimidazol-2-yl)pyridin-2-yl]piperidine-4-carboxylic acid] as the compound, how does the inhibition at 0.05 µM [1] read?
**A.** 39%

**Q.** With Cn1c(-c2cc(NCCN)ncc2Cl)nc2ccccc21 [Example A-142, N-[5-chloro-4-(1-methyl-1H-benzimidazol-2-yl)pyridin-2-yl]ethane-1,2-diamine] as the compound, how does the inhibition at 0.05 µM [1] read?
**A.** 44%

**Q.** Which inhibition at 0.05 µM [1] does the source give for Cn1c(-c2cc(N3CC(c4ncc[nH]4)C3)ncc2Cl)nc2ccccc21 [Example A-133, 2-{5-chloro-2-[3-(1H-imidazol-2-yl)azetidin-1-yl]pyridin-4-yl}-1-methyl-1H-benzimidazole] here?
**A.** 48%

**Q.** COC(=O)N1CCN(c2nccc(-c3nc4ccccc4n3C)n2)CC1 [Example C-6, Methyl 4-[4-(1-methyl-1H-benzimidazol-2-yl)pyrimidin-2-yl]piperazine-1-carboxylate] was tested. Which inhibition at 0.05 µM [1] did it give?
**A.** 27%

**Q.** How did the inhibition at 0.05 µM [1] turn out when Cc1nccn1CC1(O)CCN(c2cc(-c3nc4ccccc4n3C)c(Cl)cn2)C1 (stereo not drawn) [Example A-135, 1-[5-chloro-4-(1-methyl-1H-benzimidazol-2-yl)pyridin-2-yl]-3-[(2-methyl-1H-imidazol-1-yl)methyl]pyrrolidin-3-ol] was run?
**A.** 46%

**Q.** COC1CCN(c2cc(-c3nc4cccnc4n3C)c(Cl)cn2)CC1 [Example A-38, 2-[5-chloro-2-(4-methoxypiperidin-1-yl)pyridin-4-yl]-3-methyl-3H-imidazo[4,5-b]pyridine] was tested. Which inhibition at 0.05 µM [1] did it give?
**A.** 51%

**Q.** And the IC50 [1]?
**A.** 463 nM

**Q.** For Cn1c(-c2ccnc(N3CCN(S(C)(=O)=O)CC3)n2)nc2ccccc21 [Example C-4, 1-Methyl-2-{2-[4-(methylsulfonyl)piperazin-1-yl]pyrimidin-4-yl}-1H-benzimidazole], which inhibition at 0.05 µM [1] is on record?
**A.** 45%

**Q.** How did the inhibition at 0.05 µM [1] turn out when Cn1c(-c2cc(N3CCC(S(C)(=O)=O)CC3)ncc2Cl)nc2cccnc21 [Example A-37, 2-{5-chloro-2-[4-(methylsulfonyl)piperidin-1-yl]pyridin-4-yl}-3-methyl-3H-imidazo[4,5-b]pyridine] was run?
**A.** 67%

**Q.** And the IC50 [1]?
**A.** 247 nM

**Q.** Which inhibition at 0.05 µM [1] does the source give for CC(=O)NC1CCN(c2cc(-c3nc4ccccc4n3C)c(Cl)cn2)C1 (stereo in doubt) [Example A-134, N-{(3S)-1-[5-chloro-4-(1-methyl-1H-benzimidazol-2-yl)pyridin-2-yl]pyrrolidin-3-yl}acetamide] here?
**A.** 48%
